From patent US11744246B2, “Preparation of mammalian oocyte for fertilization via a soluble human PH20 hyaluronidase polypeptide” (SYNGENTA PARTICIPATIONS AG, priority 2017, dated 2023)

How the values were obtained:
Type in all cases: cell-based
[1] = system: Magnaporthe grisea (Pyricularia oryzae); test: microbe, parasite or virus in culture; conditions: read-out: control of Magnaporthe grisea
[2] = system: Botryotinia fuckeliana (Botrytis cinerea); test: Botryotinia fuckeliana (Botrytis cinerea)/Liquid Culture (Gray Mould); conditions: 72 h, liquid culture, growth inhibition photometrically 3-4 days after application, compared to untreated control
[3] = system: Glomerella lagenarium (Colletotrichum lagenarium); test: Glomerella Lagenarium (Colletotrichum Lagenarium)/Liquid Culture (Anthracnose); conditions: Colletotrichum orbiculare, liquid culture, growth inhibition photometrically 3-4 days after application, compared to untreated control
[4] = system: Monographella nivalis (Microdochium nivale); test: Monographella nivalis (Microdochium nivale)/Liquid Culture (Foot Rot Cereals); conditions: 96 h, liquid culture, growth inhibition photometrically 4-5 days after application, compared to untreated control
Fusarium culmorum = test: microbe, parasite or virus in culture; conditions: 72 h, read-out: control of Fusarium culmorum

Measured: inhibition of growth at 20 ppm

CC(COC1CCCCC1)(CC(F)(F)F)C(=O)Nc1cnc2c(F)cccc2c1 (stereo not shown) [E.08, 2-(cyclohexoxymethyl)-4,4,4-trifluoro-N-(8-fluoro-3-quinolyl)-2-methyl-butanamide]
≥ 80%: all assays above

CC(COC1CCC1)(CC(F)(F)F)C(=O)Nc1cnc2c(F)cccc2c1 (stereo not shown) [E.07, 2-(cyclobutoxymethyl)-4,4,4-trifluoro-N-(8-fluoro-3-quinolyl)-2-methyl-butanamide]
≥ 80%: all assays above

CC(COc1ccc(F)cc1)(CC(F)(F)F)C(=O)Nc1cnc2c(F)cccc2c1 (stereo not shown) [E.03, 4,4,4-trifluoro-2-[(4-fluorophenoxy)methyl]-N-(8-fluoro-3-quinolyl)-2-methyl-butanamide]
≥ 80%: all assays above

CC(COc1ccc(Cl)cc1)(CC(F)(F)F)C(=O)Nc1cnc2c(F)cccc2c1 (stereo not shown) [E.05, 2-[(4-chlorophenoxy)methyl]-4,4,4-trifluoro-N-(8-fluoro-3-quinolyl)-2-methyl-butanamide]
≥ 80%: all assays above

CC(C)(C)COCC(C)(CC(F)(F)F)C(=O)Nc1cnc2c(F)cccc2c1 (stereo not shown) [E.04, 2-(2,2-dimethylpropoxymethyl)-4,4,4-trifluoro-N-(8-fluoro-3-quinolyl)-2-methyl-butanamide]
≥ 80%: all assays above

CC1(OCC(C)(CC(F)(F)F)C(=O)Nc2cnc3c(F)cccc3c2)CCCC1 (stereo not shown) [E.06, 4,4,4-trifluoro-N-(8-fluoro-3-quinolyl)-2-methyl-2-[(1-methylcyclopentoxy)meth-yl]butanamide]
≥ 80%: all assays above

CC(COc1cccc(F)c1)(CC(F)(F)F)C(=O)Nc1cnc2c(F)cccc2c1 (stereo not shown) [E.02, 4,4,4-trifluoro-2-[(3-fluorophenoxy)methyl]-N-(8-fluoro-3-quinolyl)-2-methyl-butanamide]
≥ 80%: all assays above

CC(COc1ccccc1F)(CC(F)(F)F)C(=O)Nc1cnc2c(F)cccc2c1 (stereo not shown) [E.01, 4,4,4-trifluoro-2-[(2-fluorophenoxy)methyl]-N-(8-fluoro-3-quinolyl)-2-methyl-butanamide]
≥ 80%: all assays above
